Assay results as given in the CheMixHub viscosity set.
“And” between values parts separate entries of the source, which are not always exact repeats. Equal entries are not always repeated.

Experiment: xn = mol fraction of the nth substance listed

O=C1CCCN1 + O
Settings | viscosity [mPa·s]
298.15 K, 100 kPa, x1 = 0.0115 | 1.015
298.15 K, 100 kPa, x1 = 0.0189 | 1.099
298.15 K, 100 kPa, x1 = 0.0287 | 1.211
298.15 K, 100 kPa, x1 = 0.0388 | 1.328
298.15 K, 100 kPa, x1 = 0.0505 | 1.472
298.15 K, 100 kPa, x1 = 0.0598 | 1.591
298.15 K, 100 kPa, x1 = 0.0698 | 1.725
298.15 K, 100 kPa, x1 = 0.0803 | 1.875
298.15 K, 100 kPa, x1 = 0.0898 | 2.013
298.15 K, 100 kPa, x1 = 0.1007 | 2.241
298.15 K, 100 kPa, x1 = 0.1507 | 3.167
298.15 K, 100 kPa, x1 = 0.2024 | 4.25
298.15 K, 100 kPa, x1 = 0.2554 | 5.425
298.15 K, 100 kPa, x1 = 0.3052 | 6.531
298.15 K, 100 kPa, x1 = 0.3568 | 7.599
298.15 K, 100 kPa, x1 = 0.4091 | 8.579
298.15 K, 100 kPa, x1 = 0.4579 | 9.388
298.15 K, 100 kPa, x1 = 0.5569 | 10.69
298.15 K, 100 kPa, x1 = 0.6612 | 11.65
298.15 K, 100 kPa, x1 = 0.7216 | 12.08
298.15 K, 100 kPa, x1 = 0.8231 | 12.63
298.15 K, 100 kPa, x1 = 0.8637 | 12.82
298.15 K, 100 kPa, x1 = 0.9213 | 13.08
298.15 K, 100 kPa, x1 = 0.9301 | 13.11
298.15 K, 100 kPa, x1 = 0.9395 | 13.16
298.15 K, 100 kPa, x1 = 0.9491 | 13.18
298.15 K, 100 kPa, x1 = 0.9588 | 13.21
298.15 K, 100 kPa, x1 = 0.969 | 13.22
298.15 K, 100 kPa, x2 = 0.0105 | 13.3
304.15 K, 101.33 kPa, x2 = 0.1162 | 10.05
304.15 K, 101.33 kPa, x2 = 0.1885 | 9.771
304.15 K, 101.33 kPa, x2 = 0.2962 | 9.28
304.15 K, 101.33 kPa, x2 = 0.407 | 8.553
304.15 K, 101.33 kPa, x2 = 0.5061 | 7.697
304.15 K, 101.33 kPa, x2 = 0.5975 | 6.611
304.15 K, 101.33 kPa, x2 = 0.6831 | 5.353
304.15 K, 101.33 kPa, x2 = 0.8066 | 3.322
304.15 K, 101.33 kPa, x2 = 0.9019 | 1.885
308.15 K, 101 kPa, x1 = 0.0921 | 1.572
308.15 K, 101 kPa, x1 = 0.1915 | 2.467
308.15 K, 101 kPa, x1 = 0.315 | 3.573
308.15 K, 101 kPa, x1 = 0.4027 | 4.339
308.15 K, 101 kPa, x1 = 0.519 | 5.43
308.15 K, 101 kPa, x1 = 0.5927 | 6.176
308.15 K, 101 kPa, x1 = 0.6947 | 6.828
308.15 K, 101 kPa, x1 = 0.7877 | 7.493
308.15 K, 101 kPa, x1 = 0.9207 | 8.425
308.15 K, 101.33 kPa, x2 = 0.1162 | 8.702
308.15 K, 101.33 kPa, x2 = 0.1885 | 8.419
308.15 K, 101.33 kPa, x2 = 0.2962 | 7.958
308.15 K, 101.33 kPa, x2 = 0.407 | 7.333
308.15 K, 101.33 kPa, x2 = 0.5061 | 6.591
308.15 K, 101.33 kPa, x2 = 0.5975 | 5.665
308.15 K, 101.33 kPa, x2 = 0.6831 | 4.612
308.15 K, 101.33 kPa, x2 = 0.8066 | 2.917
308.15 K, 101.33 kPa, x2 = 0.9019 | 1.69
313.15 K, 101 kPa, x1 = 0.0803 | 1.274
313.15 K, 101 kPa, x1 = 0.1598 | 2.074
313.15 K, 101 kPa, x1 = 0.2476 | 3.053
313.15 K, 101 kPa, x1 = 0.3087 | 3.73
313.15 K, 101 kPa, x1 = 0.4 | 4.641
313.15 K, 101 kPa, x1 = 0.4668 | 5.207
313.15 K, 101 kPa, x1 = 0.5478 | 5.763
313.15 K, 101 kPa, x1 = 0.6434 | 6.298
313.15 K, 101 kPa, x1 = 0.7195 | 6.627
313.15 K, 101 kPa, x1 = 0.7991 | 6.924
313.15 K, 101 kPa, x1 = 0.8781 | 7.184
313.15 K, 101 kPa, x1 = 0.9585 | 7.432
313.15 K, 101.33 kPa, x2 = 0.1162 | 7.3
313.15 K, 101.33 kPa, x2 = 0.1885 | 7.066
313.15 K, 101.33 kPa, x2 = 0.2962 | 6.647
313.15 K, 101.33 kPa, x2 = 0.407 | 6.111
313.15 K, 101.33 kPa, x2 = 0.5061 | 5.506
313.15 K, 101.33 kPa, x2 = 0.5975 | 4.74
313.15 K, 101.33 kPa, x2 = 0.6831 | 3.873
313.15 K, 101.33 kPa, x2 = 0.8066 | 2.495
313.15 K, 101.33 kPa, x2 = 0.9019 | 1.483
318.15 K, 101.33 kPa, x2 = 0.1162 | 6.211
318.15 K, 101.33 kPa, x2 = 0.1885 | 5.985
318.15 K, 101.33 kPa, x2 = 0.2962 | 5.641
318.15 K, 101.33 kPa, x2 = 0.407 | 5.164
318.15 K, 101.33 kPa, x2 = 0.5061 | 4.656
318.15 K, 101.33 kPa, x2 = 0.5975 | 4.004
318.15 K, 101.33 kPa, x2 = 0.6831 | 3.308
318.15 K, 101.33 kPa, x2 = 0.8066 | 2.165
318.15 K, 101.33 kPa, x2 = 0.9019 | 1.313
323.15 K, 101.33 kPa, x2 = 0.1162 | 5.336
323.15 K, 101.33 kPa, x2 = 0.1885 | 5.14
323.15 K, 101.33 kPa, x2 = 0.2962 | 4.823
323.15 K, 101.33 kPa, x2 = 0.407 | 4.414
323.15 K, 101.33 kPa, x2 = 0.5061 | 3.987
323.15 K, 101.33 kPa, x2 = 0.5975 | 3.433
323.15 K, 101.33 kPa, x2 = 0.6831 | 2.845
323.15 K, 101.33 kPa, x2 = 0.8066 | 1.901
323.15 K, 101.33 kPa, x2 = 0.9019 | 1.173

OCCCCO + O
viscosity
Settings | 298.15 K | 303.15 K | 308.15 K | 313.15 K | 318.15 K | 323.15 K
101 kPa, x1 = 0.0099 | – | 0.933 mPa·s | 0.836 mPa·s | 0.755 mPa·s | 0.687 mPa·s | 0.63 mPa·s
101 kPa, x1 = 0.0201 | – | 1.09 mPa·s | 0.971 mPa·s | 0.871 mPa·s | 0.788 mPa·s | 0.718 mPa·s
101 kPa, x1 = 0.0299 | – | 1.256 mPa·s | – | 0.989 mPa·s | 0.89 mPa·s | 0.806 mPa·s
101 kPa, x1 = 0.0399 | – | 1.429 mPa·s | 1.256 mPa·s | 1.113 mPa·s | 0.998 mPa·s | 0.899 mPa·s
101 kPa, x1 = 0.05 | 1.94 mPa·s | 1.625 mPa·s | 1.48 mPa·s and 1.424 mPa·s | 1.258 mPa·s | 1.14 mPa·s and 1.12 mPa·s | 1.004 mPa·s
101 kPa, x1 = 0.0599 | – | 1.838 mPa·s | 1.595 mPa·s | 1.4 mPa·s | 1.243 mPa·s | 1.11 mPa·s
101 kPa, x1 = 0.0699 | – | 2.057 mPa·s | 1.781 mPa·s | 1.559 mPa·s | 1.376 mPa·s | –
101 kPa, x1 = 0.075 | 2.65 mPa·s | – | 1.93 mPa·s | – | 1.44 mPa·s | –
101 kPa, x1 = 0.08 | – | 2.298 mPa·s | 1.982 mPa·s | 1.724 mPa·s | 1.518 mPa·s | 1.347 mPa·s
101 kPa, x1 = 0.0901 | – | 2.553 mPa·s | 2.192 mPa·s | 1.901 mPa·s | 1.666 mPa·s | 1.472 mPa·s
101 kPa, x1 = 0.1 | 3.397 mPa·s | 2.818 mPa·s and 2.803 mPa·s | 2.44 mPa·s and 2.404 mPa·s and 2.514 mPa·s | 2.079 mPa·s | 1.84 mPa·s and 1.817 mPa·s | 1.602 mPa·s
101 kPa, x1 = 0.15 | 5.39 mPa·s | – | 3.78 mPa·s | – | 2.68 mPa·s | –
101 kPa, x1 = 0.2 | 7.88 mPa·s | – | 5.24 mPa·s | – | 3.72 mPa·s | –
101 kPa, x1 = 0.2001 | 9.496 mPa·s | 7.867 mPa·s | – | – | – | –
101 kPa, x1 = 0.3007 | 13.82 mPa·s | 11.16 mPa·s | 9.319 mPa·s | – | – | –
101 kPa, x1 = 0.4 | 21.4 mPa·s | – | – | – | 9.25 mPa·s | –
101 kPa, x1 = 0.4006 | 21 mPa·s | 16.91 mPa·s | 13.99 mPa·s | – | – | –
101 kPa, x1 = 0.4977 | 29.42 mPa·s | 23.41 mPa·s | 19.16 mPa·s | – | – | –
101 kPa, x1 = 0.6 | 41.4 mPa·s | – | 25 mPa·s | – | 16.2 mPa·s | –
101 kPa, x1 = 0.6002 | 38.85 mPa·s | 30.89 mPa·s | 25.12 mPa·s | – | – | –
101 kPa, x1 = 0.6982 | 47.66 mPa·s | 38.2 mPa·s | 30.3 mPa·s | – | – | –
101 kPa, x1 = 0.7993 | 56.65 mPa·s | 44.81 mPa·s | 36.18 mPa·s | – | – | –
101 kPa, x1 = 0.8 | 60.5 mPa·s | – | 36.9 mPa·s | – | 23.8 mPa·s | –
101 kPa, x1 = 0.8969 | 63.9 mPa·s | 48.65 mPa·s | – | – | – | –
101 kPa, x1 = 0.9 | 68.4 mPa·s | – | 40.3 mPa·s | – | 27.1 mPa·s | –
101.3 kPa, x1 = 0.7917 | – | – | – | 29.65 mPa·s | – | –
101.3 kPa, x2 = 0.4531 | 33.95 mPa·s | – | – | – | – | –
101.3 kPa, x2 = 0.6513 | 18.65 mPa·s | – | – | – | – | –
